# US7381429B2, “Extracts from sophora species, method for producing the same and their use” (Dr. Willmar Schwabe GmbH & Co., priority 2000, dated 2008)
# Legend:
# [1] = molecular target: T1, human α oestrogen receptor (Homo sapiens, UniProt P03372); assay: Reportergen assay for oestrogenic activity with transfected yeast cells; type: cell-based; settings: yeast cells expressing human α oestrogen receptor, β galactosidase reporter, 72 hours at 32° C.
# T1 construct: expressed in transfected cells; host or cells: yeast cells (saccharomyces)
# T1 sequence (P03372 1-595): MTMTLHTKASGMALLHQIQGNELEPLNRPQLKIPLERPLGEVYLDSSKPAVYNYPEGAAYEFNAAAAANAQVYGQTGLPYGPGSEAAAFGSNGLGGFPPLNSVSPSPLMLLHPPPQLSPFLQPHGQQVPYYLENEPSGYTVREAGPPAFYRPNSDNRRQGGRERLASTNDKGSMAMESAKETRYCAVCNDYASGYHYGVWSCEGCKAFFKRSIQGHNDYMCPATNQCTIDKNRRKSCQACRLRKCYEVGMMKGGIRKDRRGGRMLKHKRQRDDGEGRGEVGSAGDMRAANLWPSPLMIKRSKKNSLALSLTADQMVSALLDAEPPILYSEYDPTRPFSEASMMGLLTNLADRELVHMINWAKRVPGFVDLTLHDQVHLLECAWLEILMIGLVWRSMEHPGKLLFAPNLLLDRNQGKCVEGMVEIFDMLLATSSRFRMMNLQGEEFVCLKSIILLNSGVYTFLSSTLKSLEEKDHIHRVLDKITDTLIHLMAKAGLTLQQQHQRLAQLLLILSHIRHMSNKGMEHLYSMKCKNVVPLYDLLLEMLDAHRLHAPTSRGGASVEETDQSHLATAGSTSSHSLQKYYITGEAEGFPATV
# Protocol: Testing the ethylacetate extracts produced for oestrogenic activity with transfected yeast cells, which express the human α oestrogen receptor.
# The testing of extracts for oestrogenic properties was performed with a Reportergen assay, using yeast cells (saccharomyces). These cells are stable with the human α oestrogen receptor and an expression plasmid which contains an oestrogen response element and the gene for the enzyme β galactosidase. All samples were dissolved in DMSO at a concentration of 20 mg/ml, and were given undiluted or after diluting with DMSO at the ratio of 1/10, 1/100 or at a volume of 1 μl to 100 μl culture medium in 96-well flat-bottom micro-titre dishes. Next, 100 μl yeast suspension and the chromogenous substrate chlorophenolred-β-D-galactopyranoside were added. […] The yeast cells were incubated for 72 hours at 32° C., after which absorption of the medium was measured at 540 nm in a micro-titre dish photometer. The samples were sometimes checked twice.
# [2] = system: Ishikawa-Var-I cells; settings: cited from earlier work
# [3] = animal studies; cited from earlier work
compound,measurement,setting,value
OC[C@H]1O[C@@H](Oc2ccc3c(c2)OC[C@H]2c4cc5c(cc4O[C@@H]32)OCO5)[C@H](O)[C@@H](O)[C@@H]1O [maackiain glucoside],oestrogenic activity in yeast assay,[1],relevant to the effectiveness of the extract
CC(C)=CCc1c(O)cc(O)c2c1O[C@H](c1ccc(O)cc1)CC2=O [8-prenylnaringenine],oestrogenic effect compared with 17β oestradiol,[2]; versus 17β oestradiol,only a slightly weaker effect than 17β oestradiol
same,oestrogenic potency compared with known phyto-oestrogens,"[2]; versus coumestrol, genistein or daidzein",significantly more active than the phyto-oestrogens known so far
O=C1CCC[C@@H]2[C@H]3CCC[N+]4([O-])CCC[C@@H](CN12)[C@@H]34 (some centres unmarked) [oxymatrine],toxic effects,[3],toxic effects could be shown
Oc1ccc2c(c1)OC[C@H]1c3cc4c(cc3O[C@@H]21)OCO4 [maackiain],oestrogenic activity in yeast assay,[1],relevant to the effectiveness of the extract
